Test results: patent US9732032B2, “3-aminocyclopentane carboxamide derivatives” (Merck Patent GmbH, priority 2012, dated 2017)

biological target: T1, human recombinant full-length fatty acid synthase (FASN) (Homo sapiens, UniProt P49327); experiment: Biochemical activity testing of human fatty acid synthase FASN (NADPH fluorescence intensity assay); conditions: NADPH fluorescence decrease (ex 340 nm / em 460 nm), 30 minutes at room temperature, read-out: IC50 FASN (enzyme assay)
T1 construct: human recombinant full-length fatty acid synthase; made in house; host or cells: SF9 cells
Source text: aq (aqueous), h (hour), g (gram), L (liter), mg (milligram), MHz (Megahertz), (melting point), eq (equivalent), mL (milliliter), L (microliter), ACN (acetonitrile), AcOH (acetic acid), CDCl3 (deuterated chloroform), CD3OD (deuterated methanol), CH3CN (acetonitrile), c-hex (cyclohexane), DCC (dicyclohexyl carbodiimide), DCM (dichloromethane), DIC (diisopropyl carbodiimide), DIEA (diisopropylethyl-amine), DMF (dimethylformamide), DMSO (dimethylsulfoxide), DMSO-d6 (deuterated dimethylsulfoxide), EDC (1-(3-dimethyl-amino-propyl)-3-ethylcarbodiimide), ESI (Electro-spray ionization), EtOAc (ethyl acetate), Et2O (diethyl ether), EtOH (ethanol), HATU (dimethylamino-([1,2,3]triazolo[4,5-b]pyridin-3-yloxy)-methylene]-dimethylammonium hexafluorophosphate), HPLC (High Performance Liquid Chromatography), i-PrOH (2-propanol), K2CO3 (potassium carbonate), LC (Liquid Chromatography), MeOH (methanol), MgSO4 (magnesium sulfate), MS (mass spectrometry), MTBE (Methyl tert-butyl ether), NaHCO3 (sodium bicarbonate), NaBH4 (sodium borohydride), NMM (N-methyl morpholine), NMR (Nuclear Magnetic Resonance), PyBOP (benzotriazole-1-yl-oxy-trispyrrolidino-phosphonium hexafluorophosphate), RT (room temperature), Rt (retention time), SPE (solid phase extraction), TBTU (2-(1-H-benzotriazole-1-yl)-1,1,3,3-tetramethyluromium tetrafluoro borate), TEA (triethylamine), TFA (trifluoroacetic acid), THF (tetrahydrofuran), TLC (Thin Layer Chromatography), UV (Ultraviolet). Description of the In Vitro Assays Abbreviations: GST=Glutathione-S-transferase FRET=Fluorescence resonance energy transfer HTRF®=(homogenous time resolved fluorescence) HEPES=4-(2-hydroxyethyl)-1-piperazine ethanesulfonic acid buffer DTT=Dithiothreitol BSA=bovine serum albumin CHAPS=detergent; CHAPS=3[(3-cholamidopropyl)dimethylammonio]-1-propanesulfonate Biochemical Activity Testing of Human Fatty Acid Synthase FASN
Fatty acid synthase FASN is a multifunctional enzyme with seven catalytic activities thereby synthesising long chain fatty acids especially palmitoyl-CoA in the presence of co-factor NADPH starting from the substrates acetyl-CoA and malonyl-CoA. The reductive synthesis is realized by the oxidation of NADPH to NADP. Since NADPH has a high fluorescence intensity quantum yield compared to NADP with excitation at 340 nm and emission at 460 nm, the reaction can be monitored via the decrease in fluorescence intensity. The biochemical FASN activity testing was performed as 384 well two-time-point kinetic fluorescence intensity assay format in Greiner low volume medium binding 384-well black microtiter plates in a total assay volume of 8 μl and was used for high throughput screen. In each well 3 μl 40 nM human recombinant full-length fatty acid synthase (produced in-house in SF9 cells) were dispensed in the following assay buffer: 50 mM potassium phosphate buffer pH 7.0, 0.005% (w/v) BSA, 2 mM Glutathione, 0.02% Tween-20. Then 2 μl of 200 μM NADPH in assay buffer were added, followed by the addition of the test compounds in 10 dilution concentrations starting with 30 μM (final concentration) to get a final DMSO content of 1% (v/v). The mixture was incubated for at least 15 min at room temperature. After the pre-incubation the enzymatic reaction was started by the addition of 2 μl substrate solution (80 μM acetyl-CoA, 240 μM malonyl-CoA). A first fluorescence intensity measurement (time point one) was performed with an Envision multimode reader (Perkin Elmer LAS Germany GmbH) at excitation wavelength 340 nm (lamp mode) and emission wavelength 460 nm. The reaction was incubated for 30 minutes at room temperature. After this the fluorescence intensity was measured again in the Envision using the same parameters as described above (second time point measurement). The data were analysed by subtracting the first time point measurement value from the second time point measurement value (after the enzymatic reaction). The differences of the emission signals were determined. […]

T1 sequence (P49327 whole entry): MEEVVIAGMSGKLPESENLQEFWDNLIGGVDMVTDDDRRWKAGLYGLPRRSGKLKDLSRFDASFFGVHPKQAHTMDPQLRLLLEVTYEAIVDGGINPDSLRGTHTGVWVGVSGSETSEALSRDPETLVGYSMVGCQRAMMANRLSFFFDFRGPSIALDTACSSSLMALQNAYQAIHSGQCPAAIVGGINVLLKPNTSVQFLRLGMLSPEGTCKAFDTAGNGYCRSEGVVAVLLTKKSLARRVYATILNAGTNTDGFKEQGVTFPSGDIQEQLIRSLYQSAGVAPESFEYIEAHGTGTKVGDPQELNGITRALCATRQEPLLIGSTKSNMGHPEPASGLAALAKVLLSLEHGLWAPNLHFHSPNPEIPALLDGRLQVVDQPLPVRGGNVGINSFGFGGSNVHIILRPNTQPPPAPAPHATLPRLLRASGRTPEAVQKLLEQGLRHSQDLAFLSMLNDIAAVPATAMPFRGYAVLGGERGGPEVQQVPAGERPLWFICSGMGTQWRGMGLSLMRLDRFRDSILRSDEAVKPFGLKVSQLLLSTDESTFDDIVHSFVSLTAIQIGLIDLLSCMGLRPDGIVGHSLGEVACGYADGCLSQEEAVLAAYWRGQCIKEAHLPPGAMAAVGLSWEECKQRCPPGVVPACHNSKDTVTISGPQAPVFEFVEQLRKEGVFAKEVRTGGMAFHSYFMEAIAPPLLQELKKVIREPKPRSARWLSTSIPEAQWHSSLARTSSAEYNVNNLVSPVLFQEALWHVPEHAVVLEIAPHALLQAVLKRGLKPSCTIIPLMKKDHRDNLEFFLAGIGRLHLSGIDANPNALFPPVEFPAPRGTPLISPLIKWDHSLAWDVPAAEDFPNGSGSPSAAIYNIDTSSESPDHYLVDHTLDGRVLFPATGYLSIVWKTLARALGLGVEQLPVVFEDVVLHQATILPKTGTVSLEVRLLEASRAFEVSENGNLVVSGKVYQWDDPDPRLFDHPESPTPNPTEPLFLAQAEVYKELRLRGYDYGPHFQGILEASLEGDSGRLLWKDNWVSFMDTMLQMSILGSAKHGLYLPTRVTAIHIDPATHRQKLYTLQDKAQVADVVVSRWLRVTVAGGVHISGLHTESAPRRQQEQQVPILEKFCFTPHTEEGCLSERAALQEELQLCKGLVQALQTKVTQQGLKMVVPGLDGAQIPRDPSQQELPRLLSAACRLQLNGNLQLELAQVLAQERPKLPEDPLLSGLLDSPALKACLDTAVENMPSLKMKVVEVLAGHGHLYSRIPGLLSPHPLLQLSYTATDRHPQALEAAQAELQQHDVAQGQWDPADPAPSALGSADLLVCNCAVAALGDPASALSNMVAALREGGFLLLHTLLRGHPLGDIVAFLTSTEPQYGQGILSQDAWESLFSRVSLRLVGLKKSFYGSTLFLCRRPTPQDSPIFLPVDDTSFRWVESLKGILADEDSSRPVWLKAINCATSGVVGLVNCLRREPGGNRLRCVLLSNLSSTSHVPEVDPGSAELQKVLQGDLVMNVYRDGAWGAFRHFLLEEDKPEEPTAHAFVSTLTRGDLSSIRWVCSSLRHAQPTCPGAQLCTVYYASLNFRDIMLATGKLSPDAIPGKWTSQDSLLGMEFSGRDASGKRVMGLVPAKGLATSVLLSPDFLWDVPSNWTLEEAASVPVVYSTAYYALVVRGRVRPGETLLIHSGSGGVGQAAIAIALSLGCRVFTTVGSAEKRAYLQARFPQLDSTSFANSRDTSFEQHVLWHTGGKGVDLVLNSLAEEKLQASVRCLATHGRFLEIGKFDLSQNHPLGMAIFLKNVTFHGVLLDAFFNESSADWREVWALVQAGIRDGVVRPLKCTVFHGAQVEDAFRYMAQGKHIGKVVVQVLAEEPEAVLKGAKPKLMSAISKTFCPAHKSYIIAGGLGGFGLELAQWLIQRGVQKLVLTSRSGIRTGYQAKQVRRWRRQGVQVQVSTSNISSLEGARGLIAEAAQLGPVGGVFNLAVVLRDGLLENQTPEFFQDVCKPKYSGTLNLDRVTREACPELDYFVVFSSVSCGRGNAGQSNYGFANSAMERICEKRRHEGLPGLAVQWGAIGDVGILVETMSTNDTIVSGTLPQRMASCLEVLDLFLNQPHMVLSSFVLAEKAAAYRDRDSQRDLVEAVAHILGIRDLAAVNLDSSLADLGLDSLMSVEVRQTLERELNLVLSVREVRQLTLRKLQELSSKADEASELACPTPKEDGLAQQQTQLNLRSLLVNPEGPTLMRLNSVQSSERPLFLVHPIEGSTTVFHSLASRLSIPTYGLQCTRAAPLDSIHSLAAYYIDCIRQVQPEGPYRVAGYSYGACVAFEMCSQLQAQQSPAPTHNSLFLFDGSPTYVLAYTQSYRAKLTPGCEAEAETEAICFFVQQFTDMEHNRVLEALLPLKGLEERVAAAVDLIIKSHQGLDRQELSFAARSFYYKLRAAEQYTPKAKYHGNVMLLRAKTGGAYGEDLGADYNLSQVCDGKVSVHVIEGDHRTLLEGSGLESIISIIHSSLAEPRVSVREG

`CCNC(=O)C1CC[C@@H](N(C)C(=O)c2ccc(-c3nc4cccc(F)c4o3)cc2)C1` (stereo in doubt) [Compound A100, N-((1R,3S)-3-ethylcarbamoyl-cyclopentyl)-4-(7-fluoro-benzooxazol-2-yl)-N-methyl-benzamide] and `CCNC(=O)[C@H]1CC[C@@H](N(C)C(=O)c2ccc(-c3nc4ccccc4o3)cc2)C1` [Compound A1, 4-(1,3-benzoxazol-2-yl)-N-[(1R,3S)-3-(ethylcarbamoyl)cyclopentyl]-N-methyl-benzamide] cannot be ordered by IC50: under 300 nM for the first, under 300 nM for the second.

`CCNC(=O)[C@H]1CC[C@@H](N(C)C(=O)c2ccc(-c3nc4ccccc4n3C)cc2)C1` [Compound A2, N-((1R,3S)-3-ethylcarbamoyl-cyclopentyl)-N-methyl-4-(1-methyl-1H-benzoimidazol-2-yl)-benzamide] and `CCNC(=O)[C@H]1CC[C@@H](N(C)C(=O)c2ccc(-c3nc4ccccc4[nH]3)cc2)C1` [Compound A11, 4-(1H-benzimidazol-2-yl)-N-[(1R,3S)-3-(ethylcarbamoyl)cyclopentyl]-N-methyl-benzamide] cannot be ordered by IC50: under 300 nM for the first, under 300 nM for the second.

First: CCNC(=O)[C@H]1CC[C@@H](N(C)C(=O)c2ccc(-c3ccc(O[C@@H]4CCOC4)cc3)cc2)C1 [Compound A4, 4′-[(R)-(tetrahydro-furan-3-yl)oxy]-biphenyl-4-carboxylic acid ((1R,3S)-3-ethylcarbamoyl-cyclopentyl)-methyl-amide]
Second: CCNC(=O)[C@H]1CC[C@@H](N(C)C(=O)c2ccc(-c3ccc(C)cc3)cc2)C1 [Compound A49, 4′-methyl-biphenyl-4-carboxylic acid ((1R,3S)-3-ethylcarbamoyl-cyclopentyl)-methyl-amide]
The IC50 of the first is higher: 300 to 3000 nM for the first, under 300 nM for the second. The second is the more potent here.

`CC(C)NC(=O)[C@H]1CC[C@@H](N(C)C(=O)c2ccc(-c3nc4ccccc4o3)cc2)C1` [Compound A5, 4-benzoxazol-2-yl-N-((1R,3S)-3-isopropylcarbamoyl-cyclopentyl)-N-methyl-benzamide] and `CCNC(=O)[C@@H]1CC[C@@H](N(C)C(=O)c2ccc(-c3nc4ccccc4o3)cc2)C1` [Compound A44, 4-(1,3-benzoxazol-2-yl)-N-[(1R,3R)-3-(ethylcarbamoyl)cyclopentyl]-N-methyl-benzamide] cannot be ordered by IC50: under 300 nM for the first, under 300 nM for the second.

`CN(C(=O)c1ccc(-c2nc3ccccc3o2)cc1)[C@@H]1CC[C@H](C(=O)NC2CC2)C1` [Compound A6, 4-benzoxazol-2-yl-N-((1R,3S)-3-cyclopropylcarbamoyl-cyclopentyl)-N-methyl-benzamide] and `CN(C(=O)c1ccc(-c2nc3ccccc3o2)cc1)[C@@H]1CC[C@H](C(=O)NC2CCCC2)C1` [Compound A7, 4-benzoxazol-2-yl-N-((1R,3S)-3-cyclopentylcarbamoyl-cyclopentyl)-N-methyl-benzamide] cannot be ordered by IC50: under 300 nM for the first, under 300 nM for the second.

`CCNC(=O)[C@H]1CC[C@@H](N(C)C(=O)c2ccc(-c3nc4ccccc4o3)c(OC)c2)C1` [Compound A45, 4-benzoxazol-2-yl-N-((1R,3S)-3-ethylcarbamoyl-cyclopentyl)-3-methoxy-N-methyl-benzamide] and `CCNC(=O)[C@H]1CC[C@@H](N(C)C(=O)c2ccc(-c3nc4ccccc4o3)cc2OC)C1` [Compound A46, 4-benzoxazol-2-yl-N-((1R,3S)-3-ethylcarbamoyl-cyclopentyl)-2-methoxy-N-methyl-benzamide] cannot be ordered by IC50: under 300 nM for the first, under 300 nM for the second.

`CCN(C)C(=O)[C@H]1CC[C@@H](N(C)C(=O)c2ccc(-c3nc4ccccc4o3)cc2)C1` [Compound A47, 4-benzoxazol-2-yl-N-[(1R,3S)-3-(ethyl-methyl-carbamoyl)-cyclopentyl]-N-methyl-benzamide] and `CCN(CC)C(=O)[C@H]1CC[C@@H](N(C)C(=O)c2ccc(-c3nc4ccccc4o3)cc2)C1` [Compound A48, 4-benzoxazol-2-yl-N-((1R,3S)-3-diethylcarbamoyl-cyclopentyl)-N-methyl-benzamide] fall in the same range of IC50: 300 to 3000 nM for the first, 300 to 3000 nM for the second.

`CCNC(=O)[C@H]1CC[C@@H](N(C)C(=O)c2ccc(-c3ccccc3)cc2)C1` [Compound A50, biphenyl-4-carboxylic acid ((1R,3S)-3-ethylcarbamoyl-cyclopentyl)-methyl-amide] and `CCNC(=O)[C@H]1CC[C@@H](N(C)C(=O)c2ccc(-c3ccncc3)cc2)C1` [Compound A56, N-((1R,3S)-3-ethylcarbamoyl-cyclopentyl)-N-methyl-4-pyridin-4-yl-benzamide] cannot be ordered by IC50: under 300 nM for the first, under 300 nM for the second.

`CCNC(=O)[C@H]1CC[C@@H](N(C)C(=O)c2ccc(-c3ccccc3)cc2Cl)C1` [Compound A51, 3-chloro-biphenyl-4-carboxylic acid ((1R,3S)-3-ethylcarbamoyl-cyclopentyl)-methyl-amide] and `CCNC(=O)[C@H]1CC[C@@H](N(C)C(=O)c2ccc(-c3ccccc3)cn2)C1` [Compound A53, 5-phenyl-pyridine-2-carboxylic acid ((1R,3S)-3-ethylcarbamoyl-cyclopentyl)-methyl-amide] cannot be ordered by IC50: under 300 nM for the first, under 300 nM for the second.

First: CCNC(=O)[C@H]1CC[C@@H](N(C)C(=O)c2ccc(-c3nnc(OC)cc3C)cc2)C1 [Compound A52, N-((1R,3S)-3-ethylcarbamoyl-cyclopentyl)-4-(6-methoxy-4-methyl-pyridazin-3-yl)-N-methyl-benzamide]
Second: CCNC(=O)[C@H]1CC[C@@H](N(C)C(=O)c2ccc(-c3ccc(Cl)cc3)cc2)C1 [Compound A62, 4′-chloro-biphenyl-4-carboxylic acid ((1R,3S)-3-ethylcarbamoyl-cyclopentyl)-methyl-amide]
The IC50 of the first is higher: 3000 to 50000 nM for the first, under 300 nM for the second. The second is the more potent here.

`CCNC(=O)[C@H]1CC[C@@H](N(C)C(=O)c2ccc(C#Cc3ccc(Cl)cc3)cc2)C1` [Compound A54, 4-(4-chloro-phenylethynyl)-N-((1R,3S)-3-ethylcarbamoyl-cyclopentyl)-N-methyl-benzamide] and `CCNC(=O)[C@H]1CC[C@@H](N(C)C(=O)c2ccc(C#Cc3ccc(F)cc3)cc2)C1` [Compound A55, N-((1R,3S)-3-ethylcarbamoyl-cyclopentyl)-4-(4-fluoro-phenylethynyl)-N-methyl-benzamide] cannot be ordered by IC50: under 300 nM for the first, under 300 nM for the second.

`CCNC(=O)[C@H]1CC[C@@H](N(C)C(=O)c2ccc(-c3ccncc3)cc2F)C1` [Compound A57, N-((1R,3S)-3-ethylcarbamoyl-cyclopentyl)-2-fluoro-N-methyl-4-pyridin-4-yl-benzamide] and `CCNC(=O)[C@H]1CC[C@@H](N(C)C(=O)c2c(F)cc(-c3ccc(CC)cc3)cc2F)C1` [Compound A58, 4′-ethyl-3,5-difluoro-biphenyl-4-carboxylic acid ((1R,3S)-3-ethylcarbamoyl-cyclopentyl)-methyl-amide] cannot be ordered by IC50: under 300 nM for the first, under 300 nM for the second.

`CCNC(=O)[C@H]1CC[C@@H](N(C)C(=O)c2ccc(-c3ccccc3S(C)(=O)=O)cc2)C1` [Compound A59, 2′-methanesulfonyl-biphenyl-4-carboxylic acid ((1R,3S)-3-ethylcarbamoyl-cyclopentyl)-methyl-amide] and `CCNC(=O)[C@H]1CC[C@@H](N(C)C(=O)c2ccc(-c3ccccc3S(N)(=O)=O)cc2)C1` [Compound A61, 2′-sulfamoyl-biphenyl-4-carboxylic acid ((1R,3S)-3-ethylcarbamoyl-cyclopentyl)-methyl-amide] cannot be ordered by IC50: under 300 nM for the first, under 300 nM for the second.

`CCNC(=O)[C@H]1CC[C@@H](N(C)C(=O)c2ccc(-c3ccccc3S(=O)(=O)NC(C)(C)C)cc2)C1` [Compound A60, 2′-tert-butylsulfamoyl-biphenyl-4-carboxylic acid ((1R,3S)-3-ethylcarbamoyl-cyclopentyl)-methyl-amide] was tested, and the IC50 was 3000 to 50000 nM.
